Where two headings read alike, the source gives them in different places. One block for each molecule: values may come before it.
Tests used:
wt KIT kinase = target: T1, wt KIT kinase (Homo sapiens, UniProt P10721); experiment: Wild-type KIT Kd determination (phage-tagged kinase competition binding, qPCR)
T1 construct: made in house; host or cells: E. coli derived from BL21, infected with T7 phage
Procedure: Kd Determinations. For most assays, including wt KIT kinase, kinase-tagged T7 phage strains were prepared in an E. coli host derived from the BL21 strain. E. coli were grown to log-phase and infected with T7 phage and incubated with shaking at 32° C. until lysis. […] The liganded beads were blocked with excess biotin and washed with blocking buffer (SeaBlock (Pierce), 1% BSA, 0.05% Tween 20, 1 mM DTT) to remove unbound ligand and to reduce non-specific binding. […] Test compounds were prepared as 111×stocks in 100% DMSO. Kds were determined using an 11-point 3-fold compound dilution series with three DMSO control points. […] The compounds were then diluted directly into the assays such that the final concentration of DMSO was 0.9%. All reactions were performed in polypropylene 384-well plate. Each was a final volume of 0.02 ml. […] The kinase concentration in the eluates was measured by qPCR.
Binding Constants (Kds). Binding constants (Kds) were calculated with a standard dose-response curve using the Hill equation: Response=Background+Signal−Background 1+(KdHill Slope/DoseHill Slope). The Hill Slope was set to −1. Curves were fitted using a non-linear least square fit with the Levenberg-Marquardt algorithm.

KIT D816V = KIT D816V (Homo sapiens, UniProt P10721, D816V); experiment: KIT D816V biochemical enzymatic activity assay (EZReader 2 mobility shift); conditions: ATP at APPKM (20 μM), 60 minutes
Text: (§1) PDGFRα and KIT enzymatic activity was monitored using the Perkin Elmer electrophoretic mobility shift technology platform, the EZReader 2.
(§2) Within the linear, steady-state phase of the kinase enzymatic reaction, the mixed pool of phosphorylated (product) and non-phosphorylated (substrate) peptides was passed through the microfluidic system of the PerkinElmer EZ Reader 2, under an applied electric potential difference. The presence of the phosphate group on the product peptide provided a difference in mass and charge between that of the substrate peptide, resulting in a separation of the substrate and product pools in the sample (Perrin et al., Expert Opin Drug Discovery 2010, Jan. 5(1):51-63).
(§3) As the product and substrate peptide mixture passes the lasers within the instrument, these pools are detected (λex=488 nm, λem=568 nm) and resolved as separate peaks. The ratio between these peaks reflects the activity of the compound at that concentration, in that well, under those conditions.
(§4) All test articles were dissolved in 100% DMSO at a stock concentration of 10 mM. A 100×, 10-point, 4-fold serial dilution of all test compounds was created in 100% DMSO, starting at a relevant concentration, usually 1 mM. A volume of 0.130 μL of each concentration was transferred to the relevant well of a 384-well assay plate (Greiner 781 201) using a TTPLabtech Mosquito nano-liter dispenser. Using the Multidrop, the remaining constituents of the reaction were then added to the 0.130 μL of compound as follows:
The reaction was stopped by the addition of 70 μl of Stop buffer (100 mM HEPES pH 7.5, Brij 35, 35 mM EDTA and 0.2% of Coating Reagent 3, Caliper Lifesciences). The plate was read on a Caliper EZReader 2.

[1] = target: T2, KIT D816V (HMC1.2 cells, KIT V560G and D816V) (Homo sapiens, UniProt P10721, D816V/V560G); experiment: HMC1.2 autophosphorylation assay (phospho-Y719 KIT AlphaLISA); format: cell-based; conditions: 90 minutes, KIT autophosphorylation at tyrosine 719, read-out: KIT (P-KIT HMC1.2 (nM))
T2 construct: endogenous in cells; host or cells: HMC1.2 (mast cell leukemia cell line)
Procedure: 10,000 HMC1.2 cells were incubated in 22 μL culture media (phenol-red free IMDM, no serum) in each well of a 384-well plate and serum starved overnight in a tissue culture incubator (5% CO2, 37° C.). […] 10 μL of […] streptavidin donor beads (Perkin Elmer) were added to each well, blocked from light with solid black adhesive and shaken at 300 rpm at room temperature for 2 hours. Fluorescence signal was obtained on Envision (Perkin Elmer) by AlphaScreen 384 well HTS protocol.

PDGFRα D842V = PDGFRα D842V (Homo sapiens, UniProt P16234, D842V); experiment: PDGFRα D842V biochemical enzymatic activity assay (EZReader 2 mobility shift); conditions: ATP at APPKM (25 μM), 90 minutes
Text: as §1, §2, §3, §4
The reaction was stopped by the addition of 70 μl of Stop buffer (100 mM HEPES pH 7.5, 0.015% Brij 35, 35 mM EDTA and 0.2% of Coating Reagent 3, Caliper Lifesciences). The plate was read on a Caliper EZReader 2.

[2] = Brain penetration in rats, brain to plasma ratios after 24 h IV infusion; format: in vivo, Sprague-Dawley rats; conditions: for Kp uu at 24 h: Sprague-Dawley, brain / plasma, intravenous, 1 mg/kg/hr; for Kp uu at 24 h / Rat Kp: Table 3B; for Rat Kp: methods as for compound 4
Text: To understand the brain penetration, brain to plasma ratios of the compounds were obtained in Sprague-Dawley (SD) rats. In vivo equilibrium distribution between blood and brain in preclinical species such as rats is a commonly used parameter to evaluate brain penetration. Kp,brain is the ratio of concentrations in brain and blood (Cbrain/Cplasma). The compound's passive diffusion characteristics, its affinity for membrane transporters at the blood-brain barrier (BBB), and the relative drug binding affinity differences between the plasma proteins and brain tissue influence the Kp,brain.
The animals received IV infusion of 1 mg/kg/hr of the compound over 24 hours via jugular vein cannulation. At 24 hours, blood was collected via tail vein bleeding or cardiac puncture (under anesthesia) and centrifuged to obtain plasma samples. Brain tissues were collected and homogenized with phosphate-buffered saline (PBS). The concentrations of the compounds were obtained in the plasma and brain homogenates by LC-MS/MS analysis.

[3] = Pharmacokinetics after single intravenous and oral administration in rats; format: in vivo, Sprague-Dawley rats; conditions: iv 1 mg/kg, Clu=Cl/fu,plasma
Procedure: Assessment of pharmacokinetics following single intravenous and oral administration in rats: 3 Sprague-Dawley rats were employed for each compound for each route of administration (iv or oral). For iv administration, 1 mg/kg (dose volume=5 mL/kg) of each compound was administered by intravenous route via […] injection; whereas for oral route, 2.5 mg/kg (dose volume=5 mL/kg) was administered via oral gavage. Blood samples were obtained via tail vein at predose, 0.083, 0.25, 0.5, 1, 2, 4 and 8 hr. In addition, blood samples were also obtained at 24 hr via cardiac puncture (under anesthesia with Isoflurane) for terminal bleeding. All the blood samples were analyzed for the drug concentrations via LC/MS-MS. Pharmacokinetic parameters such as Cmax, Tmax, AUClast, AUCinf, MRTlast, MRTinf, T1/2, Vss and CL were obtained by non-compartmental analysis (NCA).

[4] = rat, fu,brain from brain slice, read-out: Rat Kp, uu Brain slice

Chain of KIT D816V (P10721 26-976 D816V): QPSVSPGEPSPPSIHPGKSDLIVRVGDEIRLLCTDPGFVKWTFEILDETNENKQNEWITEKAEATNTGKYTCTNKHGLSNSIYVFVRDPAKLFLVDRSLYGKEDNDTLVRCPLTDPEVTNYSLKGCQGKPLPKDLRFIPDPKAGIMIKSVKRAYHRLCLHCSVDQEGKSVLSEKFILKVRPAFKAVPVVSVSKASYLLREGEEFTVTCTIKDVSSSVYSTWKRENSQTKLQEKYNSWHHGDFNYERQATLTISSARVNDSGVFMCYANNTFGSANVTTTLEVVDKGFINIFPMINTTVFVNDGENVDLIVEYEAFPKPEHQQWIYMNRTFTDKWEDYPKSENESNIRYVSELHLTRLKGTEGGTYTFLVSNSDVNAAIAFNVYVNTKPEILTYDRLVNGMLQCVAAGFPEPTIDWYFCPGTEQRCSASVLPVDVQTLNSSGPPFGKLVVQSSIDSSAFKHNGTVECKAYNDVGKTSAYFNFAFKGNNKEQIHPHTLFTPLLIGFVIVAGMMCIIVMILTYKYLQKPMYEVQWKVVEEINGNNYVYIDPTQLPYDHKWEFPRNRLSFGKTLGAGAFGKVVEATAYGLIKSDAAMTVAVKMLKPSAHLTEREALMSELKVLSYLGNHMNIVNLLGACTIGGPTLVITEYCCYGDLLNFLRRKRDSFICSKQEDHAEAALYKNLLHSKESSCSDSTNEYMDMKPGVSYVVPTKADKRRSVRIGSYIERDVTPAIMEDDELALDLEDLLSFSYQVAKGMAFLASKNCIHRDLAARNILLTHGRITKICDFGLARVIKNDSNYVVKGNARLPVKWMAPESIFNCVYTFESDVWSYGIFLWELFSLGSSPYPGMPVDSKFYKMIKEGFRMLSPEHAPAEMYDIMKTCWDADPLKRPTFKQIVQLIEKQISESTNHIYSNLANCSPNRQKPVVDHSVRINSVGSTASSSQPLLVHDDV
Chain of PDGFRα D842V (P16234 24-1089 D842V): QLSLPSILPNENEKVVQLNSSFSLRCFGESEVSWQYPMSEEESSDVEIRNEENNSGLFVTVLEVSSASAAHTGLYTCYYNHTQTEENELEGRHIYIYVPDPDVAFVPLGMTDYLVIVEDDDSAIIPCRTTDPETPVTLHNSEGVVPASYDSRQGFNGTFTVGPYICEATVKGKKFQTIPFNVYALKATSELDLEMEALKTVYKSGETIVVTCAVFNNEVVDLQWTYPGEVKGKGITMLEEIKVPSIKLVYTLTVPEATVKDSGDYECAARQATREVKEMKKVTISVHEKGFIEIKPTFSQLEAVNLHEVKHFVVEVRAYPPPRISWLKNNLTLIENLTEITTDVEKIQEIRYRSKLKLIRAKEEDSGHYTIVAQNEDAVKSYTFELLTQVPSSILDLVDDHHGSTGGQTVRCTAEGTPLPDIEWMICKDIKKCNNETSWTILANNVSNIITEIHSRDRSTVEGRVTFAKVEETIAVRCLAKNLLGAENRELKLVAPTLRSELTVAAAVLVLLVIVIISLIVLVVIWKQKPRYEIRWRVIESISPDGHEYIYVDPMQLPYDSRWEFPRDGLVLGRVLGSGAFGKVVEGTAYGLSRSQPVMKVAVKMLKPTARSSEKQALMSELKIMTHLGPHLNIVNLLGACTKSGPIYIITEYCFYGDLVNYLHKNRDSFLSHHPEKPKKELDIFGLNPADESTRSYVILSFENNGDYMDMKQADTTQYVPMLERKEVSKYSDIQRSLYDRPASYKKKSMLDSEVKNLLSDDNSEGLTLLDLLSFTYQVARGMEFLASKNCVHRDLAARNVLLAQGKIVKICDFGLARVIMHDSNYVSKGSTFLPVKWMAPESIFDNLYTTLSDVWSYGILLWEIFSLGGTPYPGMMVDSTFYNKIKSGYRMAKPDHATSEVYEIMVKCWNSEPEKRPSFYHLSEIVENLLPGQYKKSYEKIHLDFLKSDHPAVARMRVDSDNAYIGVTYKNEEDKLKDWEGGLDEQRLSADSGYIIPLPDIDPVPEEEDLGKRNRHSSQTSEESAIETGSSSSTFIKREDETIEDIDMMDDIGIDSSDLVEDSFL
T2 sequence (P10721 26-976 V560G/D816V): as the sequence (P10721 26-976 D816V) above, with V535G counted along it
T1 sequence (P10721 26-976): as the sequence (P10721 26-976 D816V) above, with V791D counted along it

SMILES: CCn1cc(-c2cc3c(N4CCN(c5ncc([C@@](C)(N)c6ccc(F)cc6)cn5)CC4)ncnn3c2)cn1 [Comparator A, reference compound]
- IC50 (KIT D816V): ≤ 0.3 nM
- IC50 (PDGFRα D842V): ≤ 0.3 nM
- Unbound concentration, Brain ([2]; rat, total mean brain concentration x fu,brain (homogenate)): 1.7
- Unbound concentration, Plasma ([2]; rat, total mean plasma concentration x fu,p): 2.02

SMILES: CC(C)(O)Cn1cc(-c2cc3c(N4CCN(c5ncc([C@@](C)(N)c6ccc(F)cc6)cn5)CC4)ncnn3c2)cn1 [Compound 1, (S)-1-(4-(4-(4-(5-(1-Amino-1-(4-fluorophenyl)ethyl)pyrimidin-2-yl)piperazin-1-yl)pyrrolo[2,1-f][1,2,4]triazin-6-yl)-1H-pyrazol-1-yl)-2-methylpropan-2-ol]
- IC50 (PDGFRα D842V): ≤ 0.3 nM

SMILES: CC(C)(CO)n1cc(-c2cc3c(N4CCN(c5ncc([C@@](C)(N)c6ccc(F)cc6)cn5)CC4)ncnn3c2)cn1 [Compound 2, (S)-2-(4-(4-(4-(5-(1-amino-1-(4-fluorophenyl)ethyl)pyrimidin-2-yl)piperazin-1-yl)pyrrolo[2,1-f][1,2,4]triazin-6-yl)-1H-pyrazol-1-yl)-2-methylpropan-1-ol]
- IC50 (PDGFRα D842V): ≤ 0.3 nM

SMILES: C[C@@H](O)Cn1cc(-c2cc3c(N4CCN(c5ncc([C@@](C)(N)c6ccc(F)cc6)cn5)CC4)ncnn3c2)cn1 [Compound 3]
- IC50 (PDGFRα D842V): ≤ 0.3 nM

SMILES: C[C@](N)(c1ccc(F)cc1)c1cnc(N2CCN(c3ncnn4cc(-c5cnn(CCO)c5)cc34)CC2)nc1 [Compound 4, (S)-2-(4-(4-(4-(5-(1-Amino-1-(4-fluorophenyl)ethyl)pyrimidin-2-yl)piperazin-1-yl)pyrrolo[2,1-f][1,2,4]triazin-6-yl)-1H-pyrazol-1-yl)ethanol]
- Rat IV PK (Clu) (mL/min/kg), unbound clearance [3]: (582) mL/min/kg
- IC50 (PDGFRα D842V): ≤ 0.3 nM

SMILES: C[C@H](CO)n1cc(-c2cc3c(N4CCN(c5ncc([C@@](C)(N)c6ccc(F)cc6)cn5)CC4)ncnn3c2)cn1 [Compound 5, (R)-2-(4-(4-(4-(5-((S)-1-Amino-1-(4-fluorophenyl)ethyl)pyrimidin-2-yl)piperazin-1-yl)pyrrolo[2,1-f][1,2,4]triazin-6-yl)-1H-pyrazol-1-yl)propan-1-ol]
- IC50 (PDGFRα D842V): ≤ 0.3 nM

SMILES: C[C@@H](CO)n1cc(-c2cc3c(N4CCN(c5ncc([C@@](C)(N)c6ccc(F)cc6)cn5)CC4)ncnn3c2)cn1 [Compound 6, (S)-2-(4-(4-(4-(5-((S)-1-amino-1-(4-fluorophenyl)ethyl)pyrimidin-2-yl)piperazin-1-yl)pyrrolo[2,1-f][1,2,4]triazin-6-yl)-1H-pyrazol-1-yl)propan-1-ol]
- IC50 (PDGFRα D842V): ≤ 0.3 nM

Second part, the molecule after the results:

- Kd (wt KIT kinase): < 10 nM
- IC50 (KIT D816V): 0.31 to 1 nM
- IC50 [1]: < 4.5 nM
- IC50 (PDGFRα D842V): ≤ 0.3 nM
- Kp uu at 24 h [2, 4]: 0.07
- Rat Kp [2]: 0.18
SMILES: C[C@](N)(c1ccc(F)cc1)c1cnc(N2CCN(c3ncnn4cc(-c5cnn([C@H]6CC[C@@H]6O)c5)cc34)CC2)nc1 (single isomer, unassigned) [Compound 10]

- Kd (wt KIT kinase): < 10 nM
- IC50 (KIT D816V): ≤ 0.3 nM
- IC50 [1]: < 4.5 nM
- IC50 (PDGFRα D842V): ≤ 0.3 nM
- Kp uu at 24 h ([2]; rat, fu,brain from brain homogenate, read-out: Rat Kp, uu Homogenate): 0.06
- Kp uu at 24 h [2, 4]: 0.03
- Rat Kp [2]: 0.13
SMILES: C[C@](N)(c1ccc(F)cc1)c1cnc(N2CCN(c3ncnn4cc(-c5cnn([C@@H]6CC[C@H]6O)c5)cc34)CC2)nc1 (single isomer, unassigned) [Compound 11]

- IC50 (PDGFRα D842V): ≤ 0.3 nM
SMILES: C[C@H](O)Cn1cc(-c2cc3c(N4CCN(c5ncc([C@@](C)(N)c6ccc(F)cc6)cn5)CC4)ncnn3c2)cn1 [Compound 7]

- IC50 (PDGFRα D842V): ≤ 0.3 nM
SMILES: C[C@](N)(c1ccc(F)cc1)c1cnc(N2CCN(c3ncnn4cc(-c5cnn(CC6(O)CC6)c5)cc34)CC2)nc1 [Compound 8, (S)-1-((4-(4-(4-(5-(1-Amino-1-(4-fluorophenyl)ethyl)pyrimidin-2-yl)piperazin-1-yl)pyrrolo[2,1-f][1,2,4]triazin-6-yl)-1H-pyrazol-1-yl)methyl)cyclopropan-1-ol]

- IC50 (PDGFRα D842V): ≤ 0.3 nM
SMILES: C[C@](N)(c1ccc(F)cc1)c1cnc(N2CCN(c3ncnn4cc(-c5cnn(C6(CO)CC6)c5)cc34)CC2)nc1 [Compound 9, (S)-(1-(4-(4-(4-(5-(1-Amino-1-(4-fluorophenyl)ethyl)pyrimidin-2-yl)piperazin-1-yl)pyrrolo[2,1-f][1,2,4]triazin-6-yl)-1H-pyrazol-1-yl)cyclopropyl)methanol]

Reference: patent US20230391780A1, “COMPOSITIONS AND METHODS FOR TREATING KIT- AND PDGFRA-MEDIATED DISEASES” (Blueprint Medicines Corporation, priority 2020, published 2023)
